Assay results reported in PMC12440207 (PLOS Pathogens, 2025).
“Also recorded” adds a separate entry of the source.

Columns and labels:
Ovo-SLO-1A [1] = target: T1, Ovo-SLO-1A (Onchocerca volvulus, UniProt A0A2K6W0E9); assay: Two-electrode voltage clamp of Xenopus oocytes expressing Ovo-SLO-1A; format: cell-based
Protocol: (§1) Defolliculated Xenopus laevis oocytes were purchased from Ecocyte Bioscience (Austin, TX, USA) and Xenopus 1 Corp (Dexter, MI, USA). Heterologous expression of the Bma-SLO-1F receptor was achieved by injecting 15 ng of cRNA in a total volume of 50 nL in nuclease-free water. Each oocyte was microinjected into the cytoplasm of the animal pole region using a Drummond Nanoject II microinjector (Drummond Scientific, Broomall, PA, USA). After injection, oocytes were incubated at 17°C in a sterile 96-well culture plate containing 300 μl of incubation solution (100 mM NaCl, 2 mM KCl, 1.8 mM CaCl2.2H2O, 1 mM MgCl2.6H2O, 5 mM HEPES, 2.5 mM Na pyruvate, 100 U/mL penicillin and 100 μg/mL streptomycin, pH 7.5) in each well. Incubation solution was changed daily during the period of incubation. The same procedure was also conducted for the Ovo-SLO-1A receptor. Experiments were performed on oocytes within 5 – 6 days post injection.
(§2) TEVC was conducted at room temperature by impaling oocytes with two microelectrodes; a current injecting electrode, Im, used to inject the required current for holding the membrane at a set voltage, and a voltage sensing electrode, Vm. The microelectrodes were pulled using a Flaming/Brown horizontal electrode puller (Model P-97; Sutter Instruments, Novato, CA, USA) and filled with 3 M KCl. Each electrode tip was broken with a piece of Kimwipe paper (Kimtech Science, Fisher) to achieve a resistance of 2 – 5 MΏ in recording solution (88 mM NaCl, 2.5 mM KCl, 1 mM MgCl2.6H2O, 1.8 mM CaCl2.2H2O and 5 mM HEPES, at pH 7.4). […] Amplified signals were converted from analog to digital format by a Digidata 1322A digitizer (Molecular Devices, CA, USA) and all data were acquired on a desktop computer with the Clampex 10.3 data acquisition software (Molecular Devices, Sunnyvale, CA, USA).
(§3) For our recordings, the times for drug applications were selected to allow the currents recorded to reach a stable plateau. At the beginning of experiments the Xenopus oocytes were perfused with drug free recording solution for 1 min, to obtain stable initial resting currents. […] Washing of the Xenopus oocytes then followed for 3 mins.
(§4) GraphPad Prism 10.1.1 software (GraphPad Software Inc., USA) was used to generate Concentration-response curves using the log agonist vs. response equation (variable slope) to estimate EC50, Rmax and Hillslope (nH) values for both Bma-SLO-1F and Ovo-SLO-1A channels. We also used the unpaired two-tailed Student’s t-test to test for statistical significance. A p value < 0.05 was deemed significant. The analyzed results were expressed as mean ± S.E.M.
(§5) The results were expressed as the mean ± S.E.M.
(§6) Results were expressed as the mean ± S.E.M.

Bma-SLO-1F [2] = target: T2, Bma-SLO-1F (Brugia malayi, UniProt A0A0J9Y9H3); assay: Two-electrode voltage clamp of Xenopus oocytes expressing Bma-SLO-1F; format: cell-based
Protocol: as §1, §2, §3, §4, §5, §6

[3] = test system: water injected oocytes (endogenous channels of Xenopus laevis); assay: Electrophysiology of water injected oocytes (control); format: cell-based
Protocol: as §2
(§7) Briefly, oocytes expressing either Bma-SLO-1F or Ovo-SLO-1A channels were impaled and subjected to a current-voltage protocol that consisted of 500 ms voltage steps from -120 to + 60 mV in 20 mV increments, starting from a holding position of -70 mV for 1 s between each step. Plateau currents were recorded at a frequency of 5000 Hz during clamping and perfused with recording solution: (88 mM NaCl, 2.5 mM, KCl, 1 mM MgCl2.6H2O, 1.8 mM CaCl2.2H2O and 5 mM HEPES, at pH 7.4). The results of the voltage steps were evaluated and analyzed using the ClampFit 10.3 software (Molecular Devices), whereas current-voltage curves (IVCs) were prepared using Graphpad Prism 10.1.1(GraphPad Software, Inc., USA).
(§8) To obtain current-voltage curves (IVCs) from our voltage steps experiments, plateau currents elicited at each step potential (-120 to + 60 mV) were acquired for individual oocytes in Clampfit 10.3 (Molecular Devices, Sunnyvale, CA, USA). […] Subsequently, statistical differences for slope values among treatment groups were analyzed using ANOVA, followed by the Tukey multiple comparison post-hoc test. Results were expressed as mean ± S.E.M.

mammalian BK channel = test system: mammalian BK channel; set-up: method as in PMID 24561672; details: mammalian BK channel activator; cited from earlier work
Ovo-SLO-1A [4] = target: T1, Ovo-SLO-1A; assay: Voltage step electrophysiology (current-voltage relationship), Ovo-SLO-1A oocytes; format: cell-based; details: 1 µM emodepside
Protocol: as §7
as §8, with “USA). Mean currents for all replicate oocytes were plotted against their corresponding voltage step potentials to obtain IVCs using Graphpad Prism 10.1.1 software (GraphPad Software, Inc., USA).” for “USA).”

Bma-SLO-1F [5] = target: T2, Bma-SLO-1F; assay: Voltage step electrophysiology (current-voltage relationship), Bma-SLO-1F oocytes; format: cell-based
Protocol: as §7
as §8, with “USA). Mean currents for all replicate oocytes were plotted against their corresponding voltage step potentials to obtain IVCs using Graphpad Prism 10.1.1 software (GraphPad Software, Inc., USA).” for “USA).”

[6] = 3 µM GoSlo-SR-5-69 + 0.3 µM emodepside, Ca2+ replaced with equimolar Co2+
[7] = 3 µM GoSlo-SR-5-69 alone, +20 mV
[8] = 3 µM GoSlo-SR-5-69 on 0.3 µM emodepside response
[9] = 0.3 µM emodepside + 3 µM GoSlo-SR-5-69 co-applied, n = 6
[10] = absence of GoSlo-SR-5-69, modulation experiment, n = 6
[11] = emodepside alone, +20 mV, n = 10
[12] = emodepside concentration-response, n = 10
[13] = in the presence of 3 µM GoSlo-SR-5-69, n = 6

T1 sequence (A0A2K6W0E9 entry or part of it): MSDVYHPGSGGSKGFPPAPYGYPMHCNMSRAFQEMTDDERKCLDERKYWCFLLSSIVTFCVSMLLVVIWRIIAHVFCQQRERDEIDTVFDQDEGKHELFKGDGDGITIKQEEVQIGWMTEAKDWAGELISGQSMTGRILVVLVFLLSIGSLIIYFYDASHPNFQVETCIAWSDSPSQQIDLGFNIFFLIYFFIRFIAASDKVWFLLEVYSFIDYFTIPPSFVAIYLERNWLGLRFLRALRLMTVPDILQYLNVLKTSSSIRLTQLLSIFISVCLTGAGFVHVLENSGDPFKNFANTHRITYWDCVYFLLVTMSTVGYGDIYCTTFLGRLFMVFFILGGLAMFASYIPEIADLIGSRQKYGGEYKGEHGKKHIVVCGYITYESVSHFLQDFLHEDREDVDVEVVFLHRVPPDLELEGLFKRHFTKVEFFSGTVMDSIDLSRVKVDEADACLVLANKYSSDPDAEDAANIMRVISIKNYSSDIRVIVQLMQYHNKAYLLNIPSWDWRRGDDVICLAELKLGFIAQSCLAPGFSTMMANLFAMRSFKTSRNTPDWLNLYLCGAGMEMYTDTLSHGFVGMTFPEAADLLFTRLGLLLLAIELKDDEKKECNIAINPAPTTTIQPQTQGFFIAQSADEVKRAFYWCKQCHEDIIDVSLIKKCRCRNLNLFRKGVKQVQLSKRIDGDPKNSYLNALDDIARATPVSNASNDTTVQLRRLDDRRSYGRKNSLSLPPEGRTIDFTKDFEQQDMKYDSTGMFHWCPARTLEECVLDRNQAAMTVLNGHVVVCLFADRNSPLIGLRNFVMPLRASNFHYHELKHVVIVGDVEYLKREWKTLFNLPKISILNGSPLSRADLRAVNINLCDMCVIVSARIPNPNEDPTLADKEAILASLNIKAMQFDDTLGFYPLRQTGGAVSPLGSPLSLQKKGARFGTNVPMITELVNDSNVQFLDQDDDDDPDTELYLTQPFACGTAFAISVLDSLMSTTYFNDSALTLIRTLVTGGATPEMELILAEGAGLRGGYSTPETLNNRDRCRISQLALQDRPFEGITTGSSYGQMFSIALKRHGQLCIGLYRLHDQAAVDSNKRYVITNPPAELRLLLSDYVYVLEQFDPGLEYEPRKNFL
T2 sequence (A0A0J9Y9H3 entry or part of it): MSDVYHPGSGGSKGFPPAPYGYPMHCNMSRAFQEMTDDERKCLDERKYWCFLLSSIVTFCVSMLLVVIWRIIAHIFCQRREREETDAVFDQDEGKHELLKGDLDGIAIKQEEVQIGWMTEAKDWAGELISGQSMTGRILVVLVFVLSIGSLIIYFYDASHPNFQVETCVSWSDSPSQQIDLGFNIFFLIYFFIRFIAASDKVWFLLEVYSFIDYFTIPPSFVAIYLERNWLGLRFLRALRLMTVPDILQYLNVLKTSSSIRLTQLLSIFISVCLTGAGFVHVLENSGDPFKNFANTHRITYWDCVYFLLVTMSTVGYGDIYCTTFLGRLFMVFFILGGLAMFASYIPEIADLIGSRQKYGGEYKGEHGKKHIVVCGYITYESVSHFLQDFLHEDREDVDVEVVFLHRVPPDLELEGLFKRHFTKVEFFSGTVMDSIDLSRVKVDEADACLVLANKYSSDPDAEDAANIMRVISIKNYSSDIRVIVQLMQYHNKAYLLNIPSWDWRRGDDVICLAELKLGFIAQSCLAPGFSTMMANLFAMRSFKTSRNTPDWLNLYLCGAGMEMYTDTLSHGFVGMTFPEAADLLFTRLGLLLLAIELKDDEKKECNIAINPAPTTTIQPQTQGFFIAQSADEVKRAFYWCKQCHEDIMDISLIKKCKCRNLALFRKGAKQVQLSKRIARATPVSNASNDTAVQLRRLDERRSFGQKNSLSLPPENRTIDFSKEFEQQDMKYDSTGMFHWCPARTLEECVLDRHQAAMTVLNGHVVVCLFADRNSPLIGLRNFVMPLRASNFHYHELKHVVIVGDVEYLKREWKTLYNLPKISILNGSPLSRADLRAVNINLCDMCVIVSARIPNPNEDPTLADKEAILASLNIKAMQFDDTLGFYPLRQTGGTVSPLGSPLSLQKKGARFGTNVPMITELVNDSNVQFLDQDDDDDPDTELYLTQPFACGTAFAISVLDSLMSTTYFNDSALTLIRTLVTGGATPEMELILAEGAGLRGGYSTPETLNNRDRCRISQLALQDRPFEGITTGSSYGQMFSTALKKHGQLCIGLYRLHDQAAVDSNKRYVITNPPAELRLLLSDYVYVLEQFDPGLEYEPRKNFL

Nc1c(S(=O)(=O)O)cc(Nc2ccc3c(c2)CCCC3)c2c1C(=O)c1ccccc1C2=O [GoSlo-SR-5–69]
change in emodepside Rmax (Ovo-SLO-1A [1]; 3 µM GoSlo-SR-5-69): significantly increased | shift in emodepside EC50 (Ovo-SLO-1A [1]; 3 µM GoSlo-SR-5-69): did not cause a significant shift; also recorded: remained unchanged | potentiation of emodepside responses in the absence of extracellular Ca2+ (Ovo-SLO-1A [1]; [6]): still potentiated | agonist activity (channel activation) alone (Ovo-SLO-1A [1]; [7]): lacks agonist activity; also recorded: does not by itself activate | percentage increase in peak currents of the emodepside response (Ovo-SLO-1A [1]; [8]): 65.2% | increase in emodepside Rmax (Bma-SLO-1F [2]; 3 µM GoSlo-SR-5-69): 1.7 fold | increase in sensitivity to emodepside (EC50 shift) (Bma-SLO-1F [2]; 3 µM GoSlo-SR-5-69): 7 fold | potentiation of emodepside responses in the absence of extracellular Ca2+ (Bma-SLO-1F [2]; [6]): still potentiated | agonist activity (channel activation) alone (Bma-SLO-1F [2]; [7]): lacks agonist activity; also recorded: does not by itself activate | percentage increase in peak currents of the emodepside response (Bma-SLO-1F [2]; [8]): 200% | current produced in water injected oocytes ([3]; 3 µM GoSlo-SR-5-69, +20 mV, also seen in SLO-1 expressing oocytes): slowly inactivating inward current | EC50 (mammalian BK channel): 251 nM

emodepside
current response (Ovo-SLO-1A [1]; [9]): 6735 ± 272 nA | current response (Ovo-SLO-1A [1]; 0.3 µM emodepside alone, n = 6): 4170 ± 355 nA | sensitivity of Ovo-SLO-1A to emodepside relative to Bma-SLO-1F (EC50 ratio) (Ovo-SLO-1A [1]; Ovo-SLO-1A vs Bma-SLO-1F): 3.5 times | Rmax of emodepside (Ovo-SLO-1A [1]; [10]): 2454 ± 87 nA | maximum response (Rmax) (Ovo-SLO-1A [1]; [11]): 10762 ± 478 nA | Hillslope (Ovo-SLO-1A [1]; [12]): 1.2 ± 0.1 | Rmax of emodepside (Ovo-SLO-1A [1]; [13]): 4928 ± 830 nA | current (Imax) response (Bma-SLO-1F [2]; [9]): 2799 ± 100 nA | current (Imax) response (Bma-SLO-1F [2]; 0.3 µM emodepside alone, n = 6): 954 ± 355 nA | Rmax of emodepside (Bma-SLO-1F [2]; [10]): 2679 ± 318 nA | maximum response (Rmax) (Bma-SLO-1F [2]; [11]): 6446 ± 287 nA | Hillslope (Bma-SLO-1F [2]; [12]): 1.1 ± 0.1 | Rmax of emodepside (Bma-SLO-1F [2]; [13]): 4493 ± 433 nA | reversal potential (Ovo-SLO-1A [4]; no change from basal): -71 mV | slope conductance (Ovo-SLO-1A [4]; voltage steps -120 to +60 mV, n = 6 (basal 26 ± 2.9 µS)): 61 ± 4.4 µS | slope conductance (Bma-SLO-1F [5]; 1 µM emodepside, voltage steps -120 to +60 mV, n = 6 (basal 2.4 ± 0.3 µS)): 12 ± 1.0 µS | reversal potential (Bma-SLO-1F [5]; all current voltage plots, with and without 1 µM emodepside): ~-72 mV | response of water injected oocytes ([3]; 0.3 µM emodepside, +20 mV): no response | effect on current and conductance of water injected oocytes ([3]; 1 µM emodepside, voltage steps): little or no agonist effects; also recorded: no detectable change
